Experimental data: patent US6022869A, “Aminoheterocyclic compounds with antithrombotic/anticoagulant effect” (Zeneca Limited, priority 1996, dated 2000)

B1: antistasin: protein, specific Factor Xa inhibitor which possesses antithrombotic properties (protein, UniProt P15358 18-136, looked up)
Antistasin: QGPFGPGCEEAGCPEGSACNIITDRCTCSGVRCRMHCPHGFQRSRYGCEFCKCRLEPMKATCDISECPEGMMCSRLTNKCDCKIDINCRKTCPNGLKRDKLGCEYCECRPKRKLIPRLS

Legend:
[1] = target: human Factor Xa (Homo sapiens, UniProt P00742); experiment: Measurement of Factor Xa Inhibition (test a, chromogenic substrate S-2765); format: biochemical; details: pH 7.5, 37° C., human Factor Xa 0.001 Units/ml
Procedure: a) Measurement of Factor Xa Inhibition
An in vitro assay system was carried out based on the method of Kettner et al., J. Biol. Chem., 1990, 265, 18289-18297, whereby various concentrations of a test compound were dissolved in a pH7.5 buffer containing 0.5% of a polyethylene glycol (PEG 6000) and incubated at 37° C. with human Factor Xa (0.001 Units/ml, 0.3 ml) for 15 minutes. The chromogenic substrate S-2765 (KabiVitum AB, 20 μM) was added and the mixture was incubated at 37° C. for 20 minutes whilst the absorbance at 405 nm was measured. The maximum reaction velocity (Vmax) was determined and compared with that of a control sample containing no test compound. Inhibitor potency was expressed as an IC50 value.

[2] = target: T1, human thrombin (Homo sapiens, UniProt P00734); experiment: Measurement of Thrombin Inhibition (test b, chromogenic substrate S-2238); format: biochemical; details: human thrombin 0.005 Units/ml, S-2238 7 μM
T1 construct: cleaves prothrombin to generate thrombin
Procedure: b) Measurement of Thrombin Inhibition
The procedure of method a) was repeated except that human thrombin (0.005 Units/ml) and the chromogenic substrate S-2238 (KabiVitum AB, 7 μM) were employed.

[3] = test system: human, rat or rabbit blood plasma (prothrombin time); experiment: Measurement of Anticoagulant Activity, prothrombin time (PT) test in vitro (test c); details: plasma incubated 10 minutes at 37° C., species not given
Procedure: c) Measurement of Anticoagulant Activity
An in vitro assay whereby human, rat or rabbit venous blood was collected and added directly to a sodium citrate solution (3.2 g/100 ml, 9 parts blood to 1 part citrate solution). Blood plasma was prepared by centrifugation (1000 g, 15 minutes) and stored at 2-4° C. Conventional prothrombin time (PT) tests were carried out in the presence of various concentrations of a test compound and the concentration of test compound required to double the clotting time, hereinafter referred to as CT2, was determined. In the PT test, the test compound and blood plasma were incubated at 37° C. for 10 minutes. Tissue thromboplastin with calcium (Sigma Limited, Poole, England) was added. Fibrin formation and the time required for a clot to form were determined.

[4] = test system: Factor Xa; details: known from the literature; cited from earlier work
[5] = test system: various animal models of thrombotic disease; details: cited from earlier work

human Factor Xa, sequence (P00742 235-488 limits assumed): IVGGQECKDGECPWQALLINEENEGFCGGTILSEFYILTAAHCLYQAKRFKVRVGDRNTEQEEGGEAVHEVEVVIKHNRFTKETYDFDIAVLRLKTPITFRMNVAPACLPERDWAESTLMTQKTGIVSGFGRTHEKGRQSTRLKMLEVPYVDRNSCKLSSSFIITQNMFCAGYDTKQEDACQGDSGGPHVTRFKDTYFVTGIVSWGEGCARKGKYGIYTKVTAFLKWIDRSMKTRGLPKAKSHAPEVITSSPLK
human Factor Xa, sequence (P00742 41-179 partner limits assumed): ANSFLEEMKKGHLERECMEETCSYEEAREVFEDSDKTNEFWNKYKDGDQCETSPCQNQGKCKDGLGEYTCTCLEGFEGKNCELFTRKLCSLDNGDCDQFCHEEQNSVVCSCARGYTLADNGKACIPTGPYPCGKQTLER

Molecule	IC50 [1]	IC50 [2]	CT2 (PT), concentration of test compound required to double the clotting time [3]	Factor Xa inhibition (specificity, in words) [4]	antithrombotic properties (in words) [5]
CCSCCNC(=O)C1CN(S(=O)(=O)c2ccc3cc(Br)ccc3c2)CCN1C(=O)C1CCN(c2ccncc2)CC1 (stereo not shown) [Example 1, 4-(6-Bromonaphth-2-ylsulphonyl)-2-[N-(2-(ethylthio)ethyl)carbamoyl]-[1-1-(4-pyridyl)piperidin-4-ylcarbonyl]piperazine]	4 nM	> 5000 nM	1 µM		
tick anticoagulant protein (TAP): protein, specific Factor Xa inhibitor which possesses antithrombotic properties (YNRLCIKPRDWIDECDSNEGGERAYFRNGKGGCDSFWICPEDHTGADYYSSYRDCFNACI; UniProt P17726 1-60, looked up)				specific Factor Xa inhibitors	possess antithrombotic properties
B1				specific Factor Xa inhibitors	possess antithrombotic properties
